Results: patent publication US6153405A, “Lantibiotic mutants and chimeras of enhanced stability and activity, leader sequences therefor, genes encoding the same, and methods of producing and using the same” (The University of Maryland, priority 1998, dated 2000)
Like-named read-outs stand apart in the source and are kept apart here. *1 amine or outer side, *2 acyl side, *3 side chain or, on linkers, in order; H or OH if unused. Where no end group is shown, it is not given here. Suc = O=C(CCC(=O)[*:2])[*:1]

Tests used:
[1] = stability of dehydro residues in aqueous solution by 1H NMR; assay type: physicochemical; conditions: D2O, pH 6.0, dark, room temperature
Description: Samples for ^1 H NMR spectral analysis were dissolved in deuterated water (99.96 atom % D, Aldrich Chemical Co.), lyophilized (repeated twice) to exchange protons and dissolved in D2 O to a final concentration of 2-3 mg/mL. ^1 H NMR spectra were obtained using a Bruker AMX-500 spectrometer interfaced to an Aspect 3000 computer. Spectra were obtained at a constant temperature of 295 K, using selective solvent suppression. Data were processed using UXNMR software. Mass spectral analysis was performed by PeptidoGenic Research & Co. (Livermore, Calif.) on a Sciex API I Electrospray Mass Spectrometer which has an analysis range of over 200,000 Da with +/-0.01% accuracy, on 5 μL samples at a concentration of about 5 pmol/μL. The reported masses are those calculated as the most probable values based on the different m/z forms.
A 3 mg amount of the Nis1-11 -Sub12-32 chimera (consisting of a mixture of the Early Peak and Late Peak as defined in FIGS. 4 and 5) was dissolved in D2 O at a pH of 6.0, placed in an NMR tube (which was then closed), and incubated in aqueous solution in the dark at room temperature for 2.5 months.

[2] = tested on: B. cereus vegetative cells; test: liquid assay of vegetative cells (lysis by turbidity); assay type: cell-based, Bacillus cereus; conditions: for inhibition of vegetative cells (inhibitory concentration): amount of peptide required to reduce turbidity by 50%
Description: The activity of the chimeric Nis1-11 -Sub12-32 peptide towards inhibiting B. cereus vegetative cells was also determined. Heat-shocked B. cereus T spores (150 micrograms) were added to 1% tryptone (Difco)-0.1 M Tris-phosphate buffer (2 ml) at pH 6.8. The mixture was incubated for 2 hours at 37° C. in a rotating drum shaker, whereupon all of the spores were in the vegetative state. The chimeric peptide was then added, and incubation was continued for one additional hour. Cell lysis was monitored by turbity (measured in Klett units), and the integrity of the cell was determined by phase-contrast microscopy. Relative inhibitory effectiveness was measured as the amount of inhibitory peptide required to reduce the turbity by 50%.

B. cereus T spores [3] = test: liquid culture assay of spore outgrowth; assay type: cell-based, Bacillus cereus; conditions: for inhibition of spore outgrowth (inhibitory concentration): B. cereus T spores, 90 min incubation
Description: In the liquid culture assay, various concentrations of peptide were added to a suspension of B. cereus T spores in modified medium A and incubated in a rotating drum shaker at 30° C. for 90 min. The inhibitory effects were evaluated using phase contrast microscopy and a Klett-Summerson calorimeter. After incubation, cells were viewed by phase-contrast microscopy to determine their stage of outgrowth. Those cells in early stages of outgrowth (phase-dark and swollen, but only slightly elongated) were considered inhibited. Those cells that were fully elongated and/or divided were considered to be not inhibited. The inhibitory concentration is the concentration of peptide which arrests a majority of the population of spores at the stage of early outgrowth after the 90-min incubation period. Further, spore germination and outgrowth are accompanied by known changes in the optical density at 650 nm. Thus, the stage of outgrowth can be monitored and the inhibitory concentration can be confirmed using a Klett-Summerson calorimeter. Definitive determinations of the inhibitory concentration of peptide advantageously employ both phase-contrast microscopy and measurement of the optical density at 650 nm.

B. cereus T spores [4] = test: inhibition zone (halo) assay; assay type: cell-based, Bacillus cereus; conditions: HPLC fractions spotted on agar, sprayed with B. cereus T spores
Description: Biological activity was measured using an inhibition zone (halo) assay (ref. 21 and U.S. application Ser. No. 07/981,525 now U.S. Pat. No. 5,516,682) and a liquid culture assay (26). HPLC fractions were tested for activity by spotting 15 μL onto an agar plate (modified Medium A), incubating at 37° C. for 15 min., spraying with B. cereus T spores and incubating at 37° C. for 16 hr. Positive inhibition is defined as and was determined by a clear zone containing spores that were inhibited during outgrowth surrounded by an opaque lawn of cells derived from the spores that had become vegetative.

[5] = tested on: Bacillus cereus spores and/or vegetative cells; conditions: cited from earlier work
[6] = inferred through nisin from previous measurements (21, 26, 31)

For “Nis1-11 -Sub12-32: chimeric lantibiotic: nisin residues 1-11 and subtilin residues 12-32 (SEQ ID NO:5), processed by B. subtilis 168”, the “change in the NMR resonances of the dehydro residues” value ([1]; 72-day incubation, mixture of Early Peak and Late Peak) was “no significant change”, the “half-life of the Dha5 residue” value ([1]; NMR at 0, 34 and 72 days) was “so long that it cannot be estimated from the 72-day time-point” and the “activity against vegetative growth” value [2] was “active”. The “inhibition of vegetative cells (inhibitory concentration)” value [2] was “about 2 μg/ml”, the “activity against spore outgrowth” value (B. cereus T spores [3]) was “active” and the “inhibition of spore outgrowth (inhibitory concentration)” value (B. cereus T spores [3]) was “about 0.2 μg/ml”. For the same substance, the “activity relative to E4I-subtilin (fold more active)” value (B. cereus T spores [3]; [6]) was “about 2 fold”, the “activity relative to natural subtilin (times more active)” value (B. cereus T spores [3]; [6]) was 6-8 times and the “antimicrobial activity in halo assay” value (B. cereus T spores [4]) was “possessed antimicrobial activity”. For the same substance, the “antimicrobial activity in halo assay” value (B. cereus T spores [4]; listed as Early Peak) was “antimicrobial activity is associated mainly with the Early Peak”.
For “NL --Nis1-34: complete nisin prepeptide: nisin leader region and nisin structural region (MSTKDFNLDLVSVSKKDSGASPRITSISLCTPGCKTGALMGCNMKTATCHCSIHVSK; full-length; UniProt P13068 1-57, looked up)”, the “Secreted peptide is active” value ([5]; prepeptide expressed in L. lactis 11454, ref. c (17)) is given as “yes”.
With nisin [reference compound] the “inhibition of vegetative cells (inhibitory concentration)” value [2] was “about 2 μg/ml” and the “inhibition of spore outgrowth (inhibitory concentration)” value (B. cereus T spores [3]) was “about 0.2 μg/ml”.
For “SL --S1-32: prepeptide: subtilin leader sequence and subtilin structural region (MSKFDDFDLDVVKVSKQDSKITPQWKSESLCTPGCVTGALQTCFLQTLTCNCKISK; full-length; UniProt P10946 1-56, looked up)”, the “Secreted peptide is active” value ([5]; prepeptide expressed in B. subtilis 168, ref. b (21)) is listed as “yes” and the “Secreted peptide is active” value ([5]; prepeptide expressed in B. subtilis 6633) is listed as “yes”.
For “succinylated subtilin: subtilin succinylated at its N-terminus, accumulates in late stationary phase of B. subtilis 6633 (Suc-WKSESLCTPGCVTGALQTCFLQTLTCNCKISK; cysteine pairing not given here; also: lantibiotic (post-translational modifications not placed); UniProt P10946 25-56, looked up)”, the “activity compared with normal unsuccinylated subtilin” value ([5]; succinylated at N-terminus) is listed as “significantly less active”.
